The source of these data is ChEMBL document CHEMBL5131422, “Neuroprotective evaluation of novel substituted 1,3,4-oxadiazole and aroylhydrazone derivatives” (Bioorg Med Chem Lett, 2022).

The subject of data set [1] is Brain. The experiment in a line: Neuroprotective activity against 6-OHDA-induced oxidative stress in rat brain synaptosomes assessed as cell viability at 40 uM by MTT assay relative to control. The data set is classed as functional, subcellular. Particulars: Synaptosome; call rule not given here. On the technique in general: Tetrazolium assays rely on reduction of a dye to a coloured formazan, in cell work by metabolically active cells.

A short description of data set [2]: Toxicity in rat brain synaptosomes assessed as reduction in cell viability at 40 uM measured after 1 hr by MTT assay relative to control. The data set is classed as subcellular, Synaptosome.
The test system of data set [3] is Brain. The experiment in a line: Neuroprotective activity against 6-OHDA-induced oxidative stress in rat brain synaptosomes assessed as GSH level at 40 uM relative to control. The note with it: Synaptosome. The data set is classed as functional, subcellular.
Data set [4] can be described thus: Toxicity in rat brain synaptosomes assessed as effect on reduced glutathione level at 40 uM measured after 1 hr relative to control. The note with it: in vitro. The data set is classed as subcellular, Synaptosome.
In data set [5] the target is T1, Amine oxidase [flavin-containing] A (Homo sapiens, UniProt P21397).
T1 sequence (P21397 whole entry): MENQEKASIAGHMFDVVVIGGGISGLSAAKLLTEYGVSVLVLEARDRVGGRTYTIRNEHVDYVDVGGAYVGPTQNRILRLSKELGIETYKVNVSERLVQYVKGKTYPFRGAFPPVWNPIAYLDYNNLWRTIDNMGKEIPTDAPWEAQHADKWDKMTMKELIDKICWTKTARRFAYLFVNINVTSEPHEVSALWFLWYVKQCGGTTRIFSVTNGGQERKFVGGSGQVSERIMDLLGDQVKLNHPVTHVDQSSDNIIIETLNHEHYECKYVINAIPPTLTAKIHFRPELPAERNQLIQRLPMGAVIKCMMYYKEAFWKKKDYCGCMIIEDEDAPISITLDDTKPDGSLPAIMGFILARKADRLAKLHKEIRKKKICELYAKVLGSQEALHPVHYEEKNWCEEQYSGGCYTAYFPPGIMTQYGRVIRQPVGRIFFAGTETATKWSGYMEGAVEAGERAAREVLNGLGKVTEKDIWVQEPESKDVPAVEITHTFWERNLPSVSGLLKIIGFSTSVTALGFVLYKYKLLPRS
Kind of data set: Inhibition of MAOA (unknown origin).

Regarding `COc1ccc(C(=O)N/N=C/c2ccc(Cl)cc2Cl)cc1O`, the Activity in data set [1] is 56%; in data set [2], 20%; in data set [3], 70%; in data set [4], 25%.

For the compound `COc1ccc2[nH]cc(/C=N\NC(=O)Cc3c[nH]c4ccccc34)c2c1`, the Activity in data set [1] was determined as 56%; in data set [2], 20%; in data set [3], 60%; in data set [4], 25%.

With `Clc1ccc(-c2nnc(-c3ccccc3)o2)cc1`, the “inhibition (INH)” value in data set [5] is given as “Active”. Moreover, the Activity in data set [1] is 66%; in data set [2] it was “Non-Toxic”; in data set [3] it was 60%; in data set [4], “Non-Toxic”.

Turning to `COc1ccc2[nH]cc(/C=N\NC(=O)c3c[nH]c4ccccc34)c2c1`, the Activity in data set [1] stood at 56%; in data set [2], 20%; in data set [3] it was 70%; in data set [4], 25%.

On to `c1ccc(-c2nnc(-c3c[nH]c4ccccc34)o2)cc1`, for which the “inhibition (INH)” value in data set [5] is on record as “Active”. In addition, the Activity in data set [1] was 56%; in data set [2], “Non-Toxic”; in data set [3], 70%; in data set [4], “Non-Toxic”.

Take `COc1ccc2[nH]cc(/C=N\NC(=O)c3ccoc3)c2c1`: the Activity in data set [1] came to 67%; in data set [2], 20%; in data set [3] it was 70%; in data set [4], 25%.

Consider `COc1ccc2[nH]cc(/C=N\NC(=O)c3ccc(Cl)cc3)c2c1`, for which the Activity in data set [1] came out at 67%; in data set [2], 20%; in data set [3], 60%; in data set [4] it was 25%.

For `COc1ccc(C(=O)N/N=C/c2ccc(Cl)cc2Cl)cc1OC`, the Activity in data set [1] amounted to 56%; in data set [2], 20%; in data set [3] it was 70%; in data set [4], 25%.

Consider `COc1ccc2[nH]cc(/C=N\NC(=O)c3snnc3C)c2c1`, for which the Activity is 67% in data set [1], 15% in data set [2], 60% in data set [3] and 25% in data set [4].
